Test results: PubChem BioAssay (NCI)
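Where inhibition never reached the appropriate level, the endpoint shown equals the highest concentration tested. Otherwise, values were interpolated linearly from a five-concentration, 48-hour dose response in 96-well plates. The concentration for full growth arrest is given as TGI.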

Assays:
Assay in all cases: DTP human tumour cell line panel, 48 h
786-0 renal = test system: 786-0 renal
COLO 205 colon = test system: COLO 205 colon
K-562 leukemia = test system: K-562 leukemia
LOX IMVI melanoma = test system: LOX IMVI melanoma
MALME-3M melanoma = test system: MALME-3M melanoma
OVCAR-3 ovarian = test system: OVCAR-3 ovarian
OVCAR-5 ovarian = test system: OVCAR-5 ovarian
OVCAR-8 ovarian = test system: OVCAR-8 ovarian
RPMI-8226 leukemia = test system: RPMI-8226 leukemia
RXF 393 renal = test system: RXF 393 renal
SF-268 CNS = test system: SF-268 CNS
SF-295 CNS = test system: SF-295 CNS
SK-MEL-28 melanoma = test system: SK-MEL-28 melanoma
SK-MEL-5 melanoma = test system: SK-MEL-5 melanoma
U251 CNS = test system: U251 CNS
UACC-257 melanoma = test system: UACC-257 melanoma
BT-549 breast = test system: BT-549 breast
MDA-MB-435 = test system: MDA-MB-435
PC-3 prostate = test system: PC-3 prostate
NCI/ADR-RES ovarian = test system: NCI/ADR-RES ovarian

Row | Structure (SMILES) | TGI (786-0 renal) [µM] | TGI (COLO 205 colon) [µM] | TGI (K-562 leukemia) [µM] | TGI (LOX IMVI melanoma) [µM] | TGI (MALME-3M melanoma) [µM] | TGI (OVCAR-3 ovarian) [µM] | TGI (OVCAR-5 ovarian) [µM] | TGI (OVCAR-8 ovarian) [µM] | TGI (RPMI-8226 leukemia) [µM] | TGI (RXF 393 renal) [µM] | TGI (SF-268 CNS) [µM] | TGI (SF-295 CNS) [µM] | TGI (SK-MEL-28 melanoma) [µM] | TGI (SK-MEL-5 melanoma) [µM] | TGI (U251 CNS) [µM] | TGI (UACC-257 melanoma) [µM] | TGI (BT-549 breast) [µM] | TGI (MDA-MB-435) [µM] | TGI (PC-3 prostate) [µM] | TGI (NCI/ADR-RES ovarian) [µM]
1 | CSc1cnc2ccccc2c1Sc1cn(C)c2ccccc2c1=O | > 100 | > 100 | > 100 | > 100 | > 100 | 95.5 | > 100 | 45 | > 100 | > 100 | > 100 | > 100 | > 100 | > 100 | 38.6 | > 100 |  |  |  | 
2 | Cc1[nH]n(C(=O)Cc2ccccc2)c(=O)c1/C=C1\C(=O)C=Cc2ccccc21 | > 100 | > 100 | > 100 | 93 | 40.2 | > 100 | > 100 | > 100 | > 100 |  | > 100 | > 100 | > 100 | > 100 |  | > 100 |  |  |  | 
3 | CCCCCCCCCCCCCCCCCCCCCCC(=O)N[C@H]1CCc2cc(OC)c(OC)c(OC)c2-c2ccc(SC)c(=O)cc21 | > 100 | 31.9 | > 100 |  | > 100 | 60.4 | > 100 | 85.6 |  |  | > 100 | > 100 | > 100 | > 100 | 53.2 | > 100 |  |  |  | 
4 | COc1ccc(N(c2ccc(C#N)cc2)c2ccc(C#N)cc2)cc1 | > 100 | > 100 |  | > 100 |  | > 100 | > 100 | > 100 |  |  | > 100 | > 100 | > 100 | > 100 | > 100 | > 100 | > 100 | > 100 | > 100 | 
5 | O=C1C/C(=C\c2ccccc2)C(=O)c2ccccc2N1 | 34.5 | 34.8 |  | 40.8 | 34.2 | 50.5 | 40.9 | 39.1 |  | 35.8 | 98.4 | 36.8 | 55.8 | 36.2 |  | 48.6 |  | 42.7 | 50.1 | 54.7
6 | COc1ccc(Cc2c3cc(OC)c(OC)cc3cc[n+]2C)cc1 | > 29.7 | > 16.7 | > 100 | > 24.7 | > 60.3 | 36.2 | > 100 | > 48.6 | > 100 | > 42 | > 27.5 | > 24.7 | > 58.6 | > 62.2 | > 73.1 | > 58.4 |  |  |  | 
7 | CCn1c(O)c(C(=O)Nc2cccs2)c(=O)n(CC)c1=S | 42.2 | 32.2 | 53.6 | 33.3 | 38.6 | 32.2 | 61.5 | 60.2 | 55.1 |  | 44.4 | 35.6 | 32.2 | 38.5 | 25.9 | 56 |  |  |  | 
8 | CC(=O)NNc1nc(C)c(C(=O)NNC(=O)C(=O)Nc2ccc(C)cc2[N+](=O)[O-])s1 | > 100 | > 100 | > 100 | > 100 | > 100 | > 100 | > 100 | > 100 | > 100 | > 100 | > 100 | > 100 | > 100 | > 100 | > 100 | > 100 |  |  |  | 
9 | Cc1nnc(NS(=O)(=O)c2ccc(N=Nc3c(O)c(C(=O)O)cc4ccccc34)cc2)s1 | > 100 | > 100 | > 100 |  | > 100 | > 100 | > 100 | > 100 | > 100 | > 100 | > 100 | > 100 | > 100 | > 100 | > 100 | > 100 |  | > 100 | > 100 | > 100
10 | NCCCc1nonc1C(=O)O | > 100 | > 100 | > 100 | > 100 | > 100 | > 100 | > 100 | > 100 | > 100 | > 100 | > 100 | > 100 | > 100 | > 100 | > 100 | > 100 |  | > 100 | > 100 | > 100
11 | COC(=O)N1C=Cc2c(c(C)c3c([nH]c4ccccc43)c2C)C1C (stereo not given) | 26.5 | 34.4 | 37.7 | 33.7 | 36.3 | 30.9 | 34.5 | 39.8 | 38.2 |  | 44.6 | 28.6 | 31.1 | 31.1 | 30.4 | 35 |  |  |  | 
12 | O=c1ccn([C@@H]2C[C@H](CO)CS(=O)C2)c(=O)[nH]1 (stereo not given in full) | > 100 | > 100 | > 100 | > 100 | > 100 | > 100 |  | > 100 | > 100 |  | > 100 | > 100 | > 100 | > 100 | > 100 | > 100 |  |  |  | 
13 | N#CC(NNC(=O)c1ccccc1O)c1ccccc1O (stereo not given) | > 100 | > 100 | > 100 | 97.3 | 96.1 | > 100 | > 100 | > 100 | > 100 | > 100 | > 100 | > 100 | > 100 | 42.3 | > 100 | 83 |  |  |  | 
14 | NC(Cc1c2ccccc2cc2ccccc12)C(=O)O (stereo not given) | > 100 | > 100 | > 100 | > 100 | > 100 | > 100 | > 100 | > 100 |  | > 100 | > 100 | > 100 | > 100 | > 100 | > 100 | > 100 |  | > 100 | > 100 | > 100
15 | CCCCc1c2c([n+]([O-])c3c1CCCC3)CCCC2 | > 100 | > 100 | > 100 | > 100 | > 100 | > 100 |  | > 100 | > 100 |  | > 100 | > 100 | > 100 | > 100 | > 100 | > 100 |  |  |  | 
16 | C[N+](C)(C)CC(=O)N/N=C\c1c(O)ccc2ccccc12 | > 100 | > 100 | > 100 | > 100 | 38.3 | > 100 | > 100 | > 100 | > 100 | 82.5 | 69.8 | > 100 | > 100 | 39.3 | > 100 | > 100 |  | > 100 | > 100 | > 100
17 | CC1CC(=O)C(CC(=O)O)[C@H]1C(C(=O)C(=O)Nc1cc(Cl)ccc1Cl)[N+](=O)[O-] (stereo not given in full) | > 100 | > 100 | > 100 | > 100 |  | > 100 | > 100 | > 100 | > 100 | > 100 | > 100 | > 100 | > 100 | > 100 | > 100 |  |  |  |  | 
18 | COC(=O)c1c(C(=O)OC)c2ccccn2c1-c1cc(C)cc2c1C(=O)C=CC2=O | 11.3 | 13.4 | 7.63 |  | 15 | 15.6 | 16.9 | 14.4 | 8.9 | 18.5 | 20.8 | 18 | 17.9 | 17 |  | 13.6 |  | 16 | 18.5 | 27.8
19 | CC1=C(C(N)=O)C(c2ccncc2)C(C#N)C(=O)N1 (stereo not given) | > 100 | > 100 | > 100 | > 100 |  |  |  |  | > 100 | > 100 | > 100 | > 100 | > 100 | > 100 | > 100 | > 100 |  | > 100 | > 100 | 
20 | O=C(O)OC12CCCCCC1C(=O)C1CCCCC12 (stereo not given) | > 100 | > 100 | > 100 | > 100 | > 100 |  |  | > 100 | > 100 | > 100 | > 100 | > 100 | > 100 | > 100 | > 100 | > 100 |  |  |  | 
21 | C(#C[C@@]12CCC[C@@H]1NCO2)c1ccc2c(c1)OCO2 | > 100 | 31.5 | 60.2 | > 100 | > 100 | > 100 | > 100 | > 100 | > 100 | > 100 | > 100 | > 100 | > 100 | > 100 | > 100 | > 100 |  | > 100 | > 100 | > 100
22 | N#Cc1nc(CCC(C(=O)O)N2C(=O)c3ccccc3C2=O)oc1N (stereo not given) | > 100 | > 100 | > 100 |  | > 100 | > 100 | > 100 | > 100 | > 100 | > 100 | > 100 | > 100 | > 100 | > 100 | > 100 | > 100 |  | > 100 | > 100 | > 100
23 | CSC(SC)=C1Sc2cccc(Cl)c2S1 | > 100 | 41.3 | > 100 | > 100 | > 100 |  | > 100 | > 100 | > 100 | 88.1 | > 100 | > 100 | > 100 | > 100 | > 100 | > 100 |  |  |  | 
